This test relates to HeLa cells. Put plainly: Proliferation assay, crystal violet staining. The settings on record: Homo sapiens, 96 h, read-out: Inhibition of HeLa cell proliferation, HeLa cells, 4 days incubation.

The structures appear in SMILES notation. pIC50: −log10 of the molar value.

Description: After 24 hours, the cells of one plate (zero plate) were dyed with crystal violet (see below), whereas the medium of the other plates was replaced with fresh culture medium (200 μl) to which the test substances were added in various concentrations (0 μM, and also in the range of 0.001-10 μM; the final concentration of the solvent dimethyl sulphoxide was 0.1 or 0.5%). The cells were incubated for 4 days in the presence of the test substances. […] After washing the fixed cells three times with water, the plates were dried at room temperature. The cells were stained by adding 100 μl/measurement point of a 0.1% strength crystal violet solution (pH adjusted to pH 3 by adding acetic acid). After washing the cells three times with water, the plates were dried at room temperature. The dye was dissolved by adding 100 μl/measurement point of a 10% strength acetic acid solution. […] The percentage change in cell growth was calculated by normalizing the measured values to the absorbance values of the zero plate (=0%) and the absorbance of the untreated (0 W) cells (=100%). The IC50 values were determined by means of a four parameter fit.

Take `C[C@@H]1COCCN1c1cc(-c2cc(C(F)(F)F)nn2C)c2ccnc(-c3ccn[nH]3)c2n1` [Example 98, 2-[(3R)-3-methylmorpholin-4-yl]-4-[1-methyl-3-(trifluoromethyl)-1H-pyrazol-5-yl]-8-(1H-pyrazol-5-yl)-1,7-naphthyridine]: the pIC50 was 6.36. For `Cc1ccsc1-c1cc(N2CCOC[C@H]2C)nc2c(-c3ccn[nH]3)nccc12` [Example 99, 2-[(3R)-3-methylmorpholin-4-yl]-4-(3-methyl-2-thienyl)-8-(1H-pyrazol-5-yl)-1,7-naphthyridine], the pIC50 is 6.40. In the case of `Cc1ccc(-c2cc(N3CCOC[C@H]3C)nc3c(-c4ccn[nH]4)nccc23)s1` [Example 100, 2-[(3R)-3-methylmorpholin-4-yl]-4-(5-methyl-2-thienyl)-8-(1H-pyrazol-5-yl)-1,7-naphthyridine], the pIC50 is 6.02. Under `Cc1cscc1-c1cc(N2CCOC[C@H]2C)nc2c(-c3ccn[nH]3)nccc12` [Example 101, 2-[(3R)-3-methylmorpholin-4-yl]-4-(4-methyl-3-thienyl)-8-(1H-pyrazol-5-yl)-1,7-naphthyridine] stands 6.47; under `C[C@@H]1COCCN1c1cc(-c2sccc2Cl)c2ccnc(-c3ccn[nH]3)c2n1` [Example 102, 4-(3-chloro-2-thienyl)-2-[(3R)-3-methylmorpholin-4-yl]-8-(1H-pyrazol-5-yl)-1,7-naphthyridine], 6.22; under `Cc1sccc1-c1cc(N2CCOC[C@H]2C)nc2c(-c3ccn[nH]3)nccc12` [Example 103, 2-[(3R)-3-methylmorpholin-4-yl]-4-(2-methyl-3-thienyl)-8-(1H-pyrazol-5-yl)-1,7-naphthyridine], 6.43. Under `C[C@@H]1COCCN1c1cc(-c2ccnc3[nH]ccc23)c2ccnc(-c3ccn[nH]3)c2n1` [Example 104, 2-[(3R)-3-methylmorpholin-4-yl]-8-(1H-pyrazol-5-yl)-4-(1H-pyrrolo[2,3-b]pyridin-4-yl)-1,7-naphthyridine] stands 6.30; under `Cc1noc(C)c1-c1cc(N2CCOC[C@H]2C)nc2c(-c3ccn[nH]3)nccc12` [Example 105, 4-(3,5-dimethyl-1,2-oxazol-4-yl)-2-[(3R)-3-methylmorpholin-4-yl]-8-(1H-pyrazol-5-yl)-1,7-naphthyridine], 6.00; under `COc1nccc(-c2cc(N3CCOC[C@H]3C)nc3c(-c4ccn[nH]4)nccc23)c1Cl` [Example 106, 4-(3-chloro-2-methoxypyridin-4-yl)-2-[(3R)-3-methylmorpholin-4-yl]-8-(1H-pyrazol-5-yl)-1,7-naphthyridine], 6.36. Under `C[C@@H]1COCCN1c1cc(C2CCOCC2)c2ccnc(-c3ccn[nH]3)c2n1` [Example 107, 2-[(3R)-3-methylmorpholin-4-yl]-8-(1H-pyrazol-5-yl)-4-(tetrahydro-2H-pyran-4-yl)-1,7-naphthyridine] stands 6.51. Turning to `C[C@@H]1COCCN1c1cc(C2=CCSCC2)c2ccnc(-c3ccn[nH]3)c2n1` [Example 108, 4-(3,6-dihydro-2H-thiopyran-4-yl)-2-[(3R)-3-methylmorpholin-4-yl]-8-(1H-pyrazol-5-yl)-1,7-naphthyridine], the pIC50 was 6.34. With `CC1CCN(c2cc(N3CCOC[C@H]3C)nc3c(-c4ccn[nH]4)nccc23)CC1` [Example 109, 2-[(3R)-3-methylmorpholin-4-yl]-4-(4-methylpiperidin-1-yl)-8-(1H-pyrazol-5-yl)-1,7-naphthyridine], the pIC50 was 6.53. Regarding `C[C@@H]1COCCN1c1cc(-c2ccnn2C(C)(C)C)c2ccnc(-c3ccn[nH]3)c2n1` [Example 110, 4-(1-tert-butyl-1H-pyrazol-5-yl)-2-[(3R)-3-methylmorpholin-4-yl]-8-(1H-pyrazol-5-yl)-1,7-naphthyridine], the pIC50 was 6.69. Under `Cc1cc(-c2cc(N3CCOC[C@H]3C)nc3c(-c4ccn[nH]4)nccc23)on1` [Example 112, 2-[(3R)-3-methylmorpholin-4-yl]-4-(3-methyl-1,2-oxazol-5-yl)-8-(1H-pyrazol-5-yl)-1,7-naphthyridine] stands 7.00.

These data come from US10772893B2, “2-(morpholin-4-yl)-1,7-naphthyridines” (BAYER PHARMA AKTIENGESELLSCHAFT, priority 2014, dated 2020).
